In patent US12570655B2, “Cysteine covalent modifiers of AKT1 and uses thereof” (Terremoto Biosciences, Inc., priority 2023, dated 2026):
Where two headings read alike, the source gives them in different places.

Key:
Type in all cases: cell-based
AKT1 E17K = molecular target: T1, AKT1 E17K (Homo sapiens, UniProt P31749, E17K); assay: Live cell AKT1 E17K target engagement by NanoBRET competitive probe displacement; details: HEK293 cells transfected with kinase-NanoLuciferase fusion, 2 h at 37° C.
T1 construct: expressed in transfected cells; host or cells: HEK293
How it was run: (§1)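 HEK293 cells transiently expressing kinase–NanoLuciferase fusions (overnight transfection) were treated with serial compound dilutions plus fluorescent ATP-competitive tracer at ~EC50 concentration for 2 h at 37 °C. BRET ratio E600/E460 measured after substrate and extracellular luciferase inhibitor addition; IC50 from log(inhibitor)–response Hill fit.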

AKT1 WT = molecular target: T2, AKT1 WT (Homo sapiens, UniProt P31749); assay: Live cell AKT1 WT target engagement by NanoBRET competitive probe displacement; details: HEK293 cells transfected with kinase-NanoLuciferase fusion, 2 h at 37° C.
T2 construct: expressed in transfected cells; host or cells: HEK293
How it was run: as §1

AKT2 = molecular target: T3, AKT2 (Homo sapiens, UniProt P31751); assay: Live cell AKT2 target engagement by NanoBRET competitive probe displacement; details: HEK293 cells transfected with kinase-NanoLuciferase fusion, 2 h at 37° C.
T3 construct: expressed in transfected cells; host or cells: HEK293
How it was run: as §1

[1] = test system: LAPC4 prostate cancer cells; assay: Antiproliferative effects in LAPC4 cells (CellTiter Glo); details: LAPC4 cells (AKT1 E17K allele), read-out: LAPC4 proliferation IC50
How it was run: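 LAPC4 cells were cultured in IMDM with 12% FBS and 1% P/S, seeded at 1,000 cells/well and exposed to compound dilutions in DMSO. After 72 h, intracellular ATP was measured by CellTiter Glo luminescence, and IC50 values came from a log(inhibitor) vs. response Hill fit.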

T1 sequence (P31749 whole entry E17K, the tested form may be a part): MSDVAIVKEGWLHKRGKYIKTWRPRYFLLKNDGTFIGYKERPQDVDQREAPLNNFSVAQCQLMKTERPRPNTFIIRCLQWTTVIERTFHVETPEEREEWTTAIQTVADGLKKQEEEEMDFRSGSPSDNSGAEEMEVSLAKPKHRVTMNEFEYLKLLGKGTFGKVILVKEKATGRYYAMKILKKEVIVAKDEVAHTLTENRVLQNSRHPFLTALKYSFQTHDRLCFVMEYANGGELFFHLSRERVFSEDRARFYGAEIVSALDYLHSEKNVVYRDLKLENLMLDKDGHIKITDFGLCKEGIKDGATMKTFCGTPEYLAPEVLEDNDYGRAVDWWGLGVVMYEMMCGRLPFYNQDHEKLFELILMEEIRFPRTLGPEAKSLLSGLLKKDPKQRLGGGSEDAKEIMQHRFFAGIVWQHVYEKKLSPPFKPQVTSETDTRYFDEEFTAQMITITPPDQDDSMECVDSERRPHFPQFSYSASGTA
T3 sequence (P31751 whole entry, the tested form may be a part): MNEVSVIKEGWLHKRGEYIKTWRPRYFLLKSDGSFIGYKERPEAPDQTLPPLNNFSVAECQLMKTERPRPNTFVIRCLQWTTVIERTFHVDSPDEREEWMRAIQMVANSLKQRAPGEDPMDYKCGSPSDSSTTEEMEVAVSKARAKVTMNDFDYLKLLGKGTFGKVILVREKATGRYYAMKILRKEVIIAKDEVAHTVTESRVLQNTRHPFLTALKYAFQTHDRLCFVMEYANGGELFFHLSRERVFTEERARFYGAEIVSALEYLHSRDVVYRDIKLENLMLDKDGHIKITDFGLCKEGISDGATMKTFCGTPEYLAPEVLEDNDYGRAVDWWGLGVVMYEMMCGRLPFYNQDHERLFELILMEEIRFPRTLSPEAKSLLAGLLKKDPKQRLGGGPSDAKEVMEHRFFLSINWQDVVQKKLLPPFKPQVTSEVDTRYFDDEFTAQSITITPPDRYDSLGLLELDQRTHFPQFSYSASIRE
T2 sequence (P31749 whole entry, the tested form may be a part): as the sequence (P31749 whole entry E17K, the tested form may be a part) above, with K17E counted along it

Row | IC50 (AKT1 E17K) [nM] | IC50 (AKT1 WT) [nM] | IC50 (AKT2) [nM] | IC50 ([1]; 72 h) [nM] | IC50 ([1]; Homo sapiens, LAPC4, 72 h) [nM] | SMILES
1 | 548 | 200 | 2570 | 4270 | – | C=CC(=O)NC1CCC(N[C@H]2CCc3cc(-n4c(-c5cccnc5N)nc5ccc(-n6cccn6)nc54)ccc32)CC1 (single isomer, unassigned) [Example 47, N-((1*,4*)-4-(((S)-5-(2-(2-aminopyridin-3-yl)-5-(1H-pyrazol-1-yl)-3H-imidazo[4,5-b]pyridin-3-yl)-2,3-dihydro-1H-inden-1-yl)amino)cyclohexyl)acrylamide]
2 | 7.19 | 158 | 24.2 | – | 80.7 | C=CC(=O)N1CCC(N[C@H]2CCc3cc(-n4c(-c5cccnc5N)nc5ccc(-n6ccc(C7CCOCC7)n6)nc54)ccc32)CC1 [Example 321, 1-(4-{[(1S)-5-[2-(2-aminopyridin-3-yl)-5-[3-(oxan-4-yl)pyrazol-1-yl]imidazo[4,5-b]pyridin-3-yl]-2,3-dihydro-1H-inden-1-yl]amino}piperidin-1-yl)prop-2-en-1-one]
3 | 21.9 | 9.84 | 74.2 | – | 75.6 | C=CC(=O)N1CCC(CN[C@H]2CCc3cc(-n4c(-c5cccnc5N)nc5ccc(-n6cccn6)nc54)ccc32)CC1 [Example 68, 1-[4-({[(1S)-5-[2-(2-aminopyridin-3-yl)-5-(pyrazol-1-yl)imidazo[4,5-b]pyridin-3-yl]-2,3-dihydro-1H-inden-1-yl]amino}methyl)piperidin-1-yl]prop-2-en-1-one]
4 | 58.7 | 1140 | 513 | 941 | – | C=CC(=O)N1CCC(N[C@@H]2c3ccc(-n4c(-c5cccnc5N)nc5ccc(-n6cccn6)nc54)cc3CC2C)CC1 (single isomer, unassigned) [Example 181, 1-(4-{[(1S,2*)-5-[2-(2-aminopyridin-3-yl)-5-(pyrazol-1-yl)imidazo[4,5-b]pyridin-3-yl]-2-methyl-2,3-dihydro-1H-inden-1-yl]amino}piperidin-1-yl)prop-2-en-1-one]
5 | 194 | 55.1 | 1200 | – | 398 | CN(C)C/C=C/C(=O)N1CCC(N[C@H]2CCc3cc(-n4c(-c5cccnc5N)nc5ccc(-n6cccn6)nc54)ccc32)CC1 [Example 34, (2E)-1-(4-{[(1S)-5-[2-(2-aminopyridin-3-yl)-5-(pyrazol-1-yl)imidazo[4,5-b]pyridin-3-yl]-2,3-dihydro-1H-inden-1-yl]amino}piperidin-1-yl)-4-(dimethylamino)but-2-en-1-one]
6 | 42.6 | 2540 | 309 | – | 1040 | C=CC(=O)N1CCC(N[C@H]2CCc3cc(-n4c(-c5cccc(F)c5)nc5ccc(-n6cccn6)nc54)ccc32)CC1 [Example 240, 1-(4-{[(1S)-5-[2-(3-fluorophenyl)-5-(pyrazol-1-yl)imidazo[4,5-b]pyridin-3-yl]-2,3-dihydro-1H-inden-1-yl]amino}piperidin-1-yl)prop-2-en-1-one]
7 | 13.4 | 9.71 | 47 | 16.3 | – | C=CC(=O)N1CC2CC[C@H]1CC2N[C@H]1CCc2cc(-n3c(-c4cccnc4N)nc4ccc(-n5cccn5)nc43)ccc21 (single isomer, unassigned) [Example 133, 1-[(1S,4S,5*)-5-{[(1S)-5-[2-(2-aminopyridin-3-yl)-5-(pyrazol-1-yl)imidazo[4,5-b]pyridin-3-yl]-2,3-dihydro-1H-inden-1-yl]amino}-2-azabicyclo[2.2.2]octan-2-yl]prop-2-en-1-one]
8 | 74.8 | 1220 | 174 | 398 | – | C=CC(=O)N1CCC(N[C@H]2CCc3cc(-n4c(-c5cccnc5N)nc5ccc(C6CC6)nc54)ccc32)C(C)C1 (single isomer, unassigned) [Example 231, 1-((3*,4*)-4-(((S)-5-(2-(2-aminopyridin-3-yl)-5-cyclopropyl-3H-imidazo[4,5-b]pyridin-3-yl)-2,3-dihydro-1H-inden-1-yl)amino)-3-methylpiperidin-1-yl)prop-2-en-1-one]
9 | 95.1 | 17.6 | 348 | – | 161 | C=CC(=O)N1CCC(N[C@H]2CCc3cc(-n4c(-c5cccnc5N)nc5ccc(C)nc54)ccc32)CC1 [Example 50, (S)-1-(4-((5-(2-(2-aminopyridin-3-yl)-5-methyl-3H-imidazo[4,5-b]pyridin-3-yl)-2,3-dihydro-1H-inden-1-yl)amino)piperidin-1-yl)prop-2-en-1-one]
10 | 671 | > 1000 | 8570 | 5050 | – | C=CC(=O)N1CCC(N[C@H]2CCc3cc(-n4c(-c5cccnc5N)nc5ccc(-n6cccn6)nc54)ccc32)c2ccccc21 (single isomer, unassigned) [Example 126, 1-[(4*)-4-{[(1S)-5-[2-(2-aminopyridin-3-yl)-5-(pyrazol-1-yl)imidazo[4,5-b]pyridin-3-yl]-2,3-dihydro-1H-inden-1-yl]amino}-3,4-dihydro-2H-quinolin-1-yl]prop-2-en-1-one]
11 | 7.45 | 415 | 80.8 | – | 319 | C=CC(=O)N1CCC(N[C@H]2CCc3cc(-n4c(-c5cccnc5N)nc5ccc(C6CCC6)nc54)ccc32)CC1 [Example 195, 1-(4-{[(1S)-5-[2-(2-aminopyridin-3-yl)-5-cyclobutylimidazo[4,5-b]pyridin-3-yl]-2,3-dihydro-1H-inden-1-yl]amino}piperidin-1-yl)prop-2-en-1-one]
12 | 16.8 | 919 | 272 | – | 380 | C=CC(=O)N1CCC(N[C@H]2CCc3cc(-n4c(-c5cccnc5N)nc5ccc(C6CC6)nc54)ccc32)C[C@H]1C (single isomer, unassigned) [Example 210, 1-((2R,4*)-4-(((S)-5-(2-(2-aminopyridin-3-yl)-5-cyclopropyl-3H-imidazo[4,5-b]pyridin-3-yl)-2,3-dihydro-1H-inden-1-yl)amino)-2-methylpiperidin-1-yl)prop-2-en-1-one]
13 | 94 | 48.1 | 265 | – | 948 | C=CC(=O)N1CCCc2cccc(C(=O)N[C@H]3CCc4cc(-n5c(-c6cccnc6N)nc6ccc(-n7cccn7)nc65)ccc43)c21 [Example 40, N-[(1S)-5-[2-(2-aminopyridin-3-yl)-5-(pyrazol-1-yl)imidazo[4,5-b]pyridin-3-yl]-2,3-dihydro-1H-inden-1-yl]-1-(prop-2-enoyl)-3,4-dihydro-2H-quinoline-8-carboxamide]
14 | 35.4 | 8.09 | 101 | 147 | – | C=CC(=O)N1CCC(N[C@H]2CCc3cc(-n4c(-c5cccnc5N)nc5ccc(-n6cccn6)nc54)ccc32)C(C)C1 (single isomer, unassigned) [Example 102, 1-((3*,4*)-4-(((S)-5-(2-(2-aminopyridin-3-yl)-5-(1H-pyrazol-1-yl)-3H-imidazo[4,5-b]pyridin-3-yl)-2,3-dihydro-1H-inden-1-yl)amino)-3-methylpiperidin-1-yl)prop-2-en-1-one]
15 | 5.9 | 86.4 | 53.6 | – | 335 | CC#CC(=O)NCc1ccccc1C(=O)N[C@H]1CCc2cc(-n3c(-c4cccnc4N)nc4ccc(-n5cccn5)nc43)ccc21 [Example 267, N-[(1S)-5-[2-(2-aminopyridin-3-yl)-5-(pyrazol-1-yl)imidazo[4,5-b]pyridin-3-yl]-2,3-dihydro-1H-inden-1-yl]-2-(but-2-ynamidomethyl)benzamide]
